Measurements: article PMC6906261 (The journal of pain : official journal of the American Pain …, 2019)
Structures can show the parent of a compound that is named as a salt.

What was measured:
CD-1 mice [1] = conditions: mouse, in vivo
TNFα mRNA = conditions: mouse, in vivo
CD-1 mice [2] = conditions: general literature value; cited from earlier work
CD-1 mice [3] = conditions: mouse, in vivo; remark: listed apart in the source
CD-1 mice [4] = conditions: mouse, in vivo; remark: listed apart in the source
CD-1 mice [5] = conditions: mouse, in vivo; remark: listed apart in the source
CD-1 mice [6] = conditions: mouse, in vivo; remark: listed apart in the source

CN1CC[C@]23c4c5ccc(O)c4O[C@H]2[C@@H](O)C=C[C@H]3[C@H]1C5 [Morphine, Morphine sulfate pentahydrate]
Withdrawal GI output, CIPN mice (CD-1 mice [1]): robust jumping and GI output response | Withdrawal GI output, pain-naïve mice (CD-1 mice [1]): robust jumping and GI output behavior | Withdrawal jumping behavior, CIPN mice (CD-1 mice [1]): robust jumping and GI output response | Withdrawal jumping behavior, pain-naïve mice (CD-1 mice [1]): robust jumping and GI output behavior | TNFα mRNA level in spinal cord in CIPN (TNFα mRNA): did not alter | Tail flick A50 from the literature (CD-1 mice [2]): around 3.2 mg/kg | Anti-nociceptive efficacy on day 3, HIV Neuropathy (CD-1 mice [3]): zero efficacy | Tolerance – Days to Zero Efficacy, HIV Neuropathy, 10 mg/kg (CD-1 mice [3]): 3.0 (2.7-3.6) days | Tolerance – Days to Zero Efficacy, CIPN, 10 mg/kg (CD-1 mice [4]): 2.2 (1.9-3.3) days | Rotarod motor impairment (latency to fall) (CD-1 mice [5]): no impairment

C=CCN1CC[C@]23c4c5ccc(O)c4O[C@H]2C(=O)CC[C@@]3(O)[C@H]1C5 [Naloxone]
Decrease of tail flick AUC vs vehicle group, naloxone it (CD-1 mice [6]): 4.6% | Effect of antagonist on SRI-22141 tail flick anti-nociception, naloxone icv (CD-1 mice [6]): strongly reduced | Effect of antagonist on SRI-22141 tail flick anti-nociception, naloxone ip (CD-1 mice [6]): completely prevented

Oc1ccc2c3c1O[C@H]1c4[nH]c5ccccc5c4C[C@@]4(O)[C@@H](C2)N(CC2CC2)CC[C@]314 [Naltrindole]
Effect of antagonist on SRI-22141 tail flick anti-nociception, naltrindole ip (CD-1 mice [6]): no impact | Effect of antagonist on TNFα mRNA decrease caused by SRI-22141 (TNFα mRNA): reversed the decrease in TNFα caused by SRI-22141 back to baseline | Effect of antagonist on SRI-22141 anti-nociception in CIPN (CD-1 mice [4]): strongly reduced
